What was measured:
g-Strophantinarrhythmie = assay: g-Strophanthin arrhythmia, guinea pig, i.v.; assay type: in vivo, Meerschweinchen
Protocol: Die Methode beruht auf der Erzeugung ventrikulärer Arrhythmien durch g-Strophantin, das männlichen Meerschweinchen in Urethannarkose (Körpermasse 300-350 g) in der Dosierung von 30 µg/kg/min über die Vena jugularis infundiert wurde. Bewertungskriterien sind hierbei die am EKG unter g-Strophantin zu beobachtenden ersten Extrasystolen sowie der Eintritt der Asystolie. Die Verzögerung des Auftretens dieser Ereignisse unter Substanzgabe wird berechnet und ist als Maß der antiarrhythmischen Effektivität zu werten.

[1] = rat; for therapeutische Index (Q = LD₅₀/ED₂₀): acute test, intravenous injection
Koronararterienokklusion = assay: Coronary artery occlusion, rat, i.v. (early-phase arrhythmias); assay type: in vivo, Ratte; conditions: for Überlebensrate n. 20 min: 2 . 10⁻⁵ mol/kg i.v. 3 min before occlusion, control 33; for Normaler Sinusrhythmus / Tod durch Bradyk. / Auftreten von Arrhythmien VF / Auftreten von Arrhythmien VT / Auftreten von Arrhythmien andere: 2 . 10⁻⁵ mol/kg i.v.; for Normaler Sinusrhythmus: control 0; for Tod durch Bradyk.: control 30; for Auftreten von Arrhythmien VF: control 59; for Auftreten von Arrhythmien VT / Auftreten von Arrhythmien andere: control 82
Protocol: Die Untersuchungen zur Beeinflussung der Arrhythmien in der Frühphase nach Koronarokklusion erfolgten an männlichen Wistarratten (Körpermasse 200-250 g) in Pentobarbitalnarkose. Nach Ligatur der linken Koronararterie wurden die Überlebensrate sowie das Auftreten verschiedener Arrhythmieformen innerhalb 20 min nach Okklusion bewertet. Für die überlebenden Tiere erfolgten zusätzlich die Bestimmung des Zeitpunktes des Einsetzens der Arrhythmien und deren Dauer in min sowie die Zahl der ventrikulären Extrasystolen. Das Arrhythmiegeschehen in der Frühphase nach Ligatur wurde von einer Reihe Verbindungen der allgemeinen Formel 1 nach i.v.-Injektion im positiven Sinne beeinflußt. Beispielsweise wirken (Z)- bzw. (E)-2-Amino-5-chlorbenzophenonamidinohydrazonacetat (Beispiel 21 bzw. 32) dosisabhängig und stark protektiv nach i.v. Gabe (3 min vor Okklusion) von 1 . 10⁻⁵ und 2,1 . 10⁻⁵mol/kg. Die an der Aconitinarrhythmie gefundene gute antiarrhythmische Wirkung wurde damit an der Okklusion bestätigt, was durch die in Tabelle 7 zusammengestellten Ergebnisse dokumentiert werden soll. TABELLE 7

Infarktgröße = assay: Infarct size determination (p-NBT), rat, i.v.; assay type: in vivo, Ratte; conditions: for Hemmung der Infarktgröße x %: significant
Source text: Die Bestimmung der Herzinfarktgröße ist ein wichtiger Parameter zum Nachweis antiischämischer Wirkqualitäten für eine Substanz. Die hier angewendete markohistochemische Infarktgrößenbestimmung durch Inkubation mit p-Nitroblautetrazoliumsalz (p-NBT) beruht auf einem Dehydrogenasenachweis, wobei p-NBT als Wasserstoffakzeptor dient und die damit verbundene Reduktion des Salzes zu einer Farbänderung desselben führt. Die Beeinflussung der Größe des ischämischen Areals - die Ischämie wurde durch Ligatur der linken Koronararterie männlicher Wistarratten (Körpermasse 200-250 g) erzeugt - wurde nach i.v. Applikation (3 min vor Okklusion) einiger Verbindungen der allgemeinen Formel 1 untersucht. Die hier erhobenen Befunde spiegeln eindeutig die myokardprotektive Wirkkomponente dieser Verbindungen wieder. […] (Beispiel 21) bzw. das (E)-/(Z)-2-Amino-5-chlorbenzophenon-N-phenylamidinohydrazonnitrat [B] (Beispiel 3) wurden die in Tabelle 9 wiedergegebenen Resultate erhalten. TABELLE 9

[2] = system: isoprenalininduzierten Glykogenolyse; assay: Isoprenaline ischaemia, rat, i.v. and p.o. (heart glycogen content); assay type: in vivo, Ratte; conditions: mean of n = 10
Protocol: Der Myokardschutz durch verschiedene Verbindungen der allgemeinen Formel 1 wurde nach i.v. und p.o. Applikation der Verbindungen am Modell der Isoprenalinischämie der Ratte geprüft. Die für diese Untersuchungen verwendete Methode erfaßt die Veränderungen des Glykogengehaltes im Herzgewebe unter Isoprenalin und dessen Beeinflussung durch Testsubstanzen. Isoprenalin wurde dabei intraperitoneal in Dosis von 5 mg/kg verabfolgt. Die i.v. Injektion der Prüfstoffe erfolgte unmittelbar vor der Isoprenalingabe, die orale Applikation 30 min davor. Als Versuchstiere wurden männliche Wistarratten (Körpermasse 200-250 g) eingesetzt. Einige der Verbindungen zeigten eine auffallende myokardprotektive Wirksamkeit. […] Die nach i.v.- bzw. p.o.-Applikation aus je n = 10 Tieren pro Dosis beobachteten Hemmwerte (Mittelwerte) gegenüber der Isoprenalininwirkung sind in Tabelle 8 aufgeführt. Tabelle 8

[3] = Toxicology, repeated oral dosing, rat; conditions: per os, repeated administration
[4] = Clinical trial stage I, intravenous, man
[5] = Toxicology, repeated oral dosing, minipig; conditions: per os, repeated administration
[6] = system: schnellen Na⁺-Einwärtsstromes; assay: Voltage clamp on isolated adult rat heart cells
[7] = 5 . 10⁻⁷ mol/kg i.v., significant vs control

Cl.N=C(N)N/N=C(\c1ccccc1)c1cc(Cl)ccc1N [Beispiel 30, (E)-2-Amino-5-chlorbenzophenonamidinohydrazonhydrochlorid]
Verzögerung des Eintritts der ersten Extrasystolen (g-Strophantinarrhythmie; 1,25 . 10⁻⁶ mol/kg i.v.): 33%

CCOC(=O)Nc1ccc2c(c1)N(C(=O)CCN1CCOCC1)c1ccccc1S2 [Etmozin]
therapeutische Index (Q = LD₅₀/ED₂₀) [1]: 1,8

(E)-2-Amino-5-chlorbenzophenonamidinohydrazonacetat [Beispiel 32]
Überlebensrate n. 20 min (Koronararterienokklusion): 71 s %
Normaler Sinusrhythmus (Koronararterienokklusion): 46 s %
Tod durch Bradyk. (Koronararterienokklusion): 19 ns %
Auftreten von Arrhythmien VF (Koronararterienokklusion): 8 s %
Auftreten von Arrhythmien VT (Koronararterienokklusion): 13 s %
Auftreten von Arrhythmien andere (Koronararterienokklusion): 54 ns %

N=C(NN=C(c1ccccc1)c1cc(Cl)ccc1N)Nc1ccccc1.O=[N+]([O-])O [Beispiel 3, (E)-/(Z)-2-Amino-5-chlorbenzophenon-N-phenylamidinohydrazonnitrat]
antiarrhythmische Wirkung gegenüber der g-strophantininduzierten Extrasystolie (g-Strophantinarrhythmie; 1 . 10⁻⁶ mol/kg i.v.): +19%
antiarrhythmische Wirkung gegenüber der g-strophantininduzierten Extrasystolie (g-Strophantinarrhythmie; 2,10 . 10⁻⁶ mol/kg i.v.): +35%
normalen Sinusrhythmus (Koronararterienokklusion; 5 . 10⁻⁷ mol/kg i.v.): 50%
Auftreten verschiedener Arrhythmieformen (VF) (Koronararterienokklusion; [7]): 10%
Auftreten verschiedener Arrhythmieformen (VT) (Koronararterienokklusion; [7]): 30%
Auftreten verschiedener Arrhythmieformen (andere) (Koronararterienokklusion; [7]): 50%
Überlebensrate (Koronararterienokklusion; [7]): 80%
ischämisches Gewebe x % (Infarktgröße; 1 . 10⁻⁷ mol/kg i.v. 3 min before occlusion, control 46,1): 21,0%
Hemmung der Infarktgröße x % (Infarktgröße; 1 . 10⁻⁷ mol/kg i.v.): 54,4 s %

(Z) -2-Amino-5-chlorbenzophenonamidinohydrazonacetat [Beispiel 21]
Verzögerung des Auftretens der ersten Extrasystolen (g-Strophantinarrhythmie; 6,25 . 10⁻⁷ mol/kg i.v. 5 min before g-strophanthin infusion, significant): 28%
Überlebensrate n. 20 min (Koronararterienokklusion): 70 s %
Normaler Sinusrhythmus (Koronararterienokklusion): 26 s %
Tod durch Bradyk. (Koronararterienokklusion): 25 ns %
Auftreten von Arrhythmien VF (Koronararterienokklusion): 8 s %
Auftreten von Arrhythmien VT (Koronararterienokklusion): 13 s %
Auftreten von Arrhythmien andere (Koronararterienokklusion): 54 ns %
x % Hemmung ([2]; intravenös, 1,0 . 10⁻⁵ mol/kg): 48,7%
x % Hemmung ([2]; intravenös, 1,5 . 10⁻⁵ mol/kg): 37,6%
x % Hemmung ([2]; intravenös, 3,2 . 10⁻⁵ mol/kg): 45,0%
x % Hemmung ([2]; intravenös, 3,2 . 10⁻⁶ mol/kg): 5,9%
x % Hemmung ([2]; intravenös, 4,6 . 10⁻⁶ mol/kg): 26,7%
x % Hemmung ([2]; intravenös, 5,0 . 10⁻⁵ mol/kg): 69,6%
x % Hemmung ([2]; peroral, 1,0 . 10⁻⁴ mol/kg): 25,6%
x % Hemmung ([2]; peroral, 1,9 . 10⁻⁴ mol/kg): 81,4%
x % Hemmung ([2]; peroral, 3,7 . 10⁻⁴ mol/kg): 71,4%
x % Hemmung ([2]; peroral, 5,0 . 10⁻⁴ mol/kg): 85,3%
x % Hemmung ([2]; peroral, 7,2 . 10⁻⁵ mol/kg, 30 min before isoprenaline): 37,2%
ischämisches Gewebe x % (Infarktgröße; 2 . 10⁻⁵ mol/kg i.v. 3 min before occlusion, control 35,0): 15,2%
Hemmung der Infarktgröße x % (Infarktgröße; 2 . 10⁻⁵ mol/kg i.v.): 56,6 s %
therapeutische Index (Q = LD₅₀/ED₂₀) [1]: 40,0
therapeutische Index Qp.o. ([1]; single oral administration): 74,3
Dosen als gut verträglich eingeschätzt [3]: 25 mg/kg
Dosierung, ab der die antiarrhythmische Aktivität ausreichend erscheint [4]: ≥ 0,25 mg/kg
Dosis, bei der die antiarrhythmische Aktivität beginnt [4]: 0,06 mg/kg
Dosen als gut verträglich eingeschätzt [5]: 30 mg/kg
schneller Na⁺-Einwärtsstrom [6]: Hemmung

CC[C@H]1[C@@H]2C[C@H]3[C@@H]4N(C)c5ccccc5[C@]45C[C@@H]([C@@H]2[C@H]5O)N3[C@@H]1O [Ajmalin]
therapeutische Index (Q = LD₅₀/ED₂₀) [1]: 6,8

CC[C@H]1C2C[C@H]3[C@@H]4N(C)c5ccccc5[C@]45C[C@@H]([C@@H]2[C@H]5O)[N@@+]3(CC(O)CN(CC)CC)[C@@H]1O (some centres unmarked) [Tachmalcor]
therapeutische Index (Q = LD₅₀/ED₂₀) [1]: 25,5

CCOc1ccccc1OCC(O)CNCCNCC(O)COc1ccccc1OCC (centres unmarked) [Falirythmin]
therapeutische Index (Q = LD₅₀/ED₂₀) [1]: 11,5

From patent EP0433526A1, “Medicine for the treatment of heart-circulatory illnesses, of arrhythmics in particular” (Richter, Peter, Prof. Dr.sc.nat., priority 1989, dated 1991)
